How the values were obtained:
[1] = tested on: bleeding time from hamster mesentery lesion; assay: Hamster mesentery bleeding time during intravenous infusion; format: in vivo, golden Syrian hamsters
Protocol: Female golden Syrian hamsters (90-150 g) were maintained on food and water ad libitum, but fasted overnight prior to their use in the present experiment. After the administration of anesthesia (65 mg/kg sodium pentobarbital, i.p.), the animals were shaved in preparation for surgery. The trachea was intubated with PE-100 polyethylene tubing to facilitate spontaneous breathing. Cannulation of the right femoral vein was performed to provide an intravenous route for supplemental anesthesia as well as for the administration of various control and experiment agents. A catheter was introduced into the right carotid artery for the continuous monitoring of arterial blood pressure, and a rectal temperature probe was inserted. The animal's body temperature was maintained at 37° C. with a heating pad and lamp.
The shaved abdomen was opened by a mid-line incision and a portion of the small intestine was exteriorized and draped over a lucite pedestal. Exposed tissue was kept warm and moist by continuous superfusion with warmed (37° C.) Mammalian Ringer's Solution. Experimental solutions were infused into the right femoral vein at a rate of 0.199 ml/min with a Harvard pump for a 10 minute period. An arterial vessel (external diameter, 100-200 micrometers) located at the junction of the small intestinal wall and the mesentery was severed 4 minutes after the start of the infusion. Blood was flushed away by the superfusion system and the waste was removed with a vacuum from a well surrounding the viewing pedestal. Bleeding was observed through Zeiss dissecting microscope (20×) and bleeding time was recorded from the time of the cut until the cessation of bleeding by the formation of a hemostatic plug. Each animal was used as its own control with bleeding time determined both during the infusion of saline and the selected experimental agent. […] Four additional animals were infused with trigramin while arterial blood pressure was continuously monitored to determine if it had any direct effect on systemic blood pressure. […]

[2] = molecular target: T1, fibrinogen receptors on platelets associated with the GPIIb-GPIIIa complex (Homo sapiens, UniProt P05106+P08514); assay: 125I-fibrinogen binding to ADP-stimulated human washed platelets; details: ADP 10 micromolar-stimulated platelets; double-reciprocal plot FIG. 1; read-out: inhibition constant, Ki (competitive inhibition of fibrinogen binding)
T1 construct: Human washed platelet suspension was prepared; endogenous in cells; host or cells: washed human platelets, stimulated with 10 micromolar ADP
Protocol: (§1) The following experiment illustrates that trigramin can inhibit fibrinogen binding to platelets. Human washed platelet suspension was prepared according to the method of Mustard et al., Brit. J. Haemat. 22:193-204 (1972) and suspended in Tyrode's albumin solution (pH 7.35) containing 3.5 mg/ml bovine serum albumin (Sigma, Fraction V). To 420 microliters of this platelet suspension (about 5×10^8 platelets/ml) was added 10 microliters of ^125 I-fibrinogen. An amount of trigramin was added to the suspension, followed 3 minutes later by 10 microliters ADP (final concentration 10 micromolar). Following addition of ADP, the platelet suspension was gently shaken and incubated for about another 10 minutes. Then, 400 microliters of the platelet suspension were centrifuged through silicone oil at 15,000 g in an Eppendorf centrifuge. The amount of ^125 I-fibrinogen bound to the platelet pellet was measured. Nonspecific binding of fibrinogen was measured in the presence of 6 mM EDTA. The IC50 or 50% inhibition of fibrinogen binding was determined.

[3] = tested on: exposed fibrinogen receptors on alpha-chymotrypsin-treated platelets; assay: 125I-fibrinogen binding to alpha-chymotrypsin-treated platelets; design: species or system human; details: data not shown; read-out: IC50 of inhibition of 125I-fibrinogen binding to alpha-chymotrypsin-treated platelets
Protocol: as §1
(§2) Platelet suspension was prepared as above. Platelets treated with alpha chymotrypsin (Sigma, grade IS) were prepared as described by Kornecki et al., J. Biol. Chem. 258:9349-9356 (1983), except that the incubation time of the platelets with chymotrypsin was reduced from 45 minutes to 20 minutes.

ADP-stimulated platelets = assay: Fibrinogen-induced aggregation of ADP-stimulated platelets in suspension (turbidimetric); format: cell-based, human; details: ADP 10 micromolar, fibrinogen 200 micrograms/ml, 37° C.; read-out: IC50 for inhibition of aggregation of ADP-stimulated platelets
Protocol: as §2
(§3) Various doses of trigramin (0.25-5.0 microgram/ml) were added to 420 microliters of platelet suspension (3×10^8 platelets per ml). One minute later, 10 microliters ADP (10 micromolar) and 10 microliters fibrinogen (200 micrograms) were added to initiate platelet aggregation. The same procedure using fibrinogen alone (without ADP) was carried out to induce aggregation of the chymotrypsin-treated platelets. The extent of platelet aggregation in each system was measured at 37° C. by the turbidimetric method of Born et al., J. Physiol. (Lond.) 168:178-195 (1963).

[4] = tested on: chymotrypsin-treated platelets; assay: Fibrinogen-induced aggregation of chymotrypsin-treated platelets (turbidimetric); format: cell-based, human; details: fibrinogen alone, without ADP, 37° C.; read-out: IC50 for inhibition of chymotrypsin-treated platelets (aggregation)
Protocol: as §2, §3

platelets = assay: Platelet aggregation induced by prostaglandin endoperoxide analogue or thrombin; format: cell-based, human; details: isolated platelet suspension
GPIIb-GPIIIa complex = molecular target: T2, GPIIb-GPIIIa complex (Homo sapiens, UniProt P05106+P08514); assay: 125I-trigramin binding to human platelets
T2 construct: endogenous in cells; host or cells: human platelets (resting, ADP-stimulated or chymotrypsin-treated)
Excerpt: There are several similarities between the binding of ^125 I-trigramin and the binding of ^125 I-fibrinogen to human platelets. The binding of both ligands is inhibited by EDTA; by monoclonal antibodies interacting with the GP-IIb-GPIIIa complex (Coller, J. Clin. Invest. 76:101-108 (1985) and Bennett et al., Proc. Natl. Acad. Sci. U.S.A. 80:2417-2421 (1983)); by synthetic peptides representing putative platelet binding sites on the fibrinogen molecule Arg-Gly-Asp-Ser (Gartner et al., J. Biol. Chem. 260:11891-11894 (1985) and Plow et al., Proc. Natl. Acad. Sci. U.S.A. 82:8057-8061 (1985)); and by tyrosyl pentadecapeptide of the C-terminal portion of the gamma chain, […](Kloczewiak et al., Biochemistry 23:1767-1774 (1984). […] These individuals are deficient in the GPIIb-GPIIIa complex.
The binding affinity of trigramin to ADP-stimulated platelets resembles that of monoclonal antibodies.

[5] = molecular target: T3, GPIIb-GPIIIa complex on thrombin-stimulated platelets (Homo sapiens, UniProt P05106+P08514); assay: 125I-von Willebrand Factor binding to thrombin-stimulated human platelets; details: trigramin 10^-8 M; thrombin 0.5 u/ml; von Willebrand Factor 5 micrograms/ml
T3 construct: endogenous in cells; host or cells: human platelets stimulated with thrombin (0.5 u/ml)
Protocol: (§4) The final concentration of von Willebrand Factor was 5 micrograms/ml. The total specific von Willebrand Factor binding was 380+/-55 ng/10^8 platelets in the control sample. […] It is well known that von Willebrand Factor binds to GPIIb-GPIIIa complex on thrombin-stimulated platelets, and to GPIb on ristocetin-stimulated platelets.

[6] = molecular target: T4, GPIb on ristocetin-stimulated platelets (Homo sapiens, UniProt P07359); assay: 125I-von Willebrand Factor binding to ristocetin-stimulated platelets; details: ristocetin 0.75 mg/ml
T4 construct: endogenous in cells; host or cells: platelets stimulated with ristocetin (0.75 mg/ml)
Protocol: as §4

[7] = tested on: melanoma cells that contain GPIIIa and vitronectin receptor; assay: Melanoma cell adhesion to fibronectin-covered substrata and cell spreading; format: cell-based
Excerpt: We have also observed an interaction between trigramin and melanoma cells that contain GPIIIa and vitronectin receptor. […] In the system tested, the biological activity of 0.2 nmoles of trigramin corresponded to 100 nmoles of the peptide glycine-arginine-glycine-aspartic acid-serine ("GRGDS"). This observation is interesting in view of the successful efforts of Humphries et al., Science 233: 467-470 to inhibit metastases of a melanoma cell line in mice by GRGDS.

[8] = Elimination from the circulation; details: in vivo
Solubility in water = format: physicochemical
Stability to proteolysis = format: in vitro ADME
[9] = Phospholipase A activity of the HPLC-purified material; format: biochemical
Protocol: A high performance liquid chromatography column (250×4.6 mm) containing a wide-pore C-18 silica matrix (e.g., VYDAC TPRP, The Separations Group, Hesperia, Calif.) is equilibrated at 20° C. in 0.1% trifluoroacetic acid. 150 micrograms of the above-prepared crude material in 200 microliters of 0.15M NaCl is injected into the column at a flow rate of 1.0 ml/min. The column is washed for 3 minutes. Fractions are eluted over 50 minutes with a gradient of 0-55% acetonitrile. […] The homogeneity of the purified material is confirmed by SDS-polyacrylamide gel electrophoresis with a silver stain (1 microgram). Trigramin appears as a single band with apparent molecular weight of about 9 kd on 20% gels.

## CC#CCC(C)[C@H](O)/C=C/[C@@H]1[C@H]2C/C(=C/CCCC(=O)O)C[C@H]2C[C@H]1O (stereo partly drawn) [Iloplrost, reference compound]
[1]; one hamster, positive control, 2 ng/kg/min
  time until bleeding ceased after the completion of the infusion: approximately 9 minutes

## trigramin
[2]
  Ki: 20 nM
[3]
  IC50: 11 nM
ADP-stimulated platelets
  IC50: 130 nM
[4]
  IC50: 28 nM
platelets; agonist 2.5 micromolar
  inhibition of platelet aggregation induced by 9,11-dideoxy-9,11-methanoepoxy-PGF2-alpha: inhibited platelet aggregation
platelets; thrombin 0.5 units/ml
  inhibition of platelet aggregation induced by thrombin: inhibited platelet aggregation
GPIIb-GPIIIa complex; ADP-stimulated platelets
  binding affinity of 125I-trigramin relative to 125I-fibrinogen, judged on dissociation constants: approximately 15 fold
GPIIb-GPIIIa complex; platelets deficient in the GPIIb-GPIIIa complex
  binding to platelets of patients with Glanzmann's thrombasthenia: Neither trigramin nor fibrinogen was observed to bind sufficiently
GPIIb-GPIIIa complex; similar on resting, ADP-stimulated and chymotrypsin-treated platelets
  number of trigramin binding sites relative to total number of fibrinogen binding sites exposed by ADP: 50%
[5]
  blocking of von Willebrand Factor binding to thrombin-stimulated human platelets: specifically blocks
[6]
  blocking of von Willebrand Factor binding to ristocetin-stimulated platelets: does not block
[7]
  adhesion of melanoma cells to fibronectin-covered substrata: blocks the adhesion
  melanoma cell spreading: inhibits cell spreading
[7]; 0.2 nmoles of trigramin corresponded to 100 nmoles of GRGDS
  amount giving corresponding biological activity in the melanoma cell system: 0.2 nmoles
[1]; hamster, infusion 80 micrograms/kg/min, FIG. 4
  bleeding time after cessation of infusion: rapid return of bleeding time to normal values
[1]; i.v. infusion, dose-dependent, control bleeding time 3.02 minutes+/-0.43, FIG. 3
  bleeding time of the hamster mesentery during continuous infusion: markedly increased
[8]
  elimination from the circulation: eliminated from the circulation rapidly
Solubility in water
  solubility in water: soluble in water
Stability to proteolysis
  stability to proteolysis: relatively stable to proteolysis
[9]
  phospholipase A activity: devoid of phospholipase A activity

Reference: US5066592A, “Trigramin - a platelet aggregation inhibiting polypeptide” (Temple University of the Commonwealth System of Higher …, priority 1990, dated 1991)
